In patent US20140336187A1, “METHODS FOR TREATING LEISHMANIASIS” (HOWARD UNIVERSITY, priority 2011, published 2014):
“And” between values parts separate entries of the source, which are not always exact repeats. Equal values may be shown once. Read-outs that look alike come from different tables or passages of the source.

Assays:
L. donovani amastigotes = test: Antileishmanial activity on L. donovani amastigotes (resazurin assay); format: cell-based, Leishmania donovani; settings: for IC50: read-out: IC50 (μM) Amastigotes; for SI Values Amastigotes: SI = IC50 (mouse fibroblast) ÷ IC50 (amastigotes)
Experimental: Amastigotes were grown in MAA/20 medium (Amastigote medium consisted of: M199 medium supplemented with 0.5% Tryptone broth, 0.01 mM bathocuproinedisulfonic acid, 0.108 mM L-Cysteine, 15 mM D-glucose, 0.685 mM L-glutamine, and 0.025 mM Hemin and 20% fetal calf serum (FCS) at a pH of 5.5).
Amastigotes were plated at a concentration of 2×10^5 cells/[…] 24 hrs before treatment with various compounds. Amastigotes were treated with dilutions of compounds in 96-well microtitre plates. Dilutions of compounds ranging from 0.03 μM to 44 μM were prepared and added to amastigotes. Amastigotes were exposed to compounds for 48 hrs and were incubated at 37° C. […] After the incubation period, 20 μl Alamar Blue (12.5 mg resazurin dissolved in 100 ml distilled water) (Mikes and Steverding, 2000) were added to each well and plates were incubated for another 2 hrs. […] Decrease of fluorescence (inhibition) was expressed as percentage of the fluorescence of control cultures and was plotted against the concentrations of compounds. The IC50 values were calculated from the sigmoidal inhibition curves. Amphotericin B was used as a reference drug.

[1] = In vivo cytotoxic assessment: serum AST and ALT in VL BALB/c mice; settings: compared with uninfected negative controls
Experimental: Serum was collected from infected, treated and non-treated mice 14 days post infection and 7 days from the start of treatment for the determination of alanine amino transferase (ALT) and aspartate amino transferase (AST) activities. Assays were done in 96 well microtiter plates and samples and standards were run in duplicates or triplicates. For ALT, 2 μl of serum from infected treated and untreated samples were incubated with 10 μl of ALT substrate solution (1.78 g DL-alanine and 30 mg α-keto glutarate in 20 ml of phosphate buffer containing 1.25 ml of 0.4 M NaOH. Volume made up to 100 ml with buffer, pH 7.4. 1 ml of chloroform as preservative. Stable for 2 months at 2-8° C.), mixed and incubated at 37° C. for 30 minutes. 10 μl of dinitrophenolhydrazine (2,4 DNPH) was added. Blanks (ddH2O) and negative (not infected) samples were then added. Samples were mixed and incubated at room temperature for 20 minutes. 100 μl of 0.4 M NaOH was added, mixed and incubated at room temperature for 5 min. Plates were read at 490 nm. For AST, 2 μl of test and positive (infected, treated and untreated) samples were incubated with 10 μl of AST substrate solution (2.66 g DL-aspartic acid and 30 mg α-keto glutarate in 20.5 ml of 1 M NaOH pH 7.4, volume made up to 100 ml with phosphate buffer. 1 ml of chloroform was added as preservative. This was stable for 2 months at 2-8° C.) and incubated at 37° C. for 1 hr. 10 μl of 2,4 DNPH added and mixed. 2 μl of negative controls (not infected) and blanks (ddH2O) added and mixed and then incubated at room temperature for 20 min. 100 μl of 0.4 M NaOH was added, mixed and incubated at room temperature for 5 min and read at 490 nm. The enzyme activity was determined from the standard curve drawn using sodium pyruvate as standard solution (2 mM/ml pyruvate). Enzyme activities were expressed as units/ml. Reference ranges by this method are: AST; 0.096-3.8 U/ml and ALT; 0.112-3.0 U/ml. (Mallick et al., 2003; Reitman and Frankel, 1957).
In order to assess in vivo cytotoxicity of four naphthoquinone compounds (IMDNQ4, IMD8, IMDNQ 10, and IMDNQ 15), serum aspartate aminotransferase (AST), and alanine aminotransferase (ALT) levels were analyzed and compared to those in untreated controls. The assay range for AST is 0.096-3.8 U/ml (mean assay range is 1.95 U/ml) and for ALT assay, 0.112-3.0 U/ml (mean assay range is 1.56 U/ml). The results are expressed as percent increase or decrease in AST or ALT levels.

[2] = system: L. donovani promastigotes; test: Antileishmanial activity on L. donovani promastigotes (resazurin cell viability assay); format: cell-based, Leishmania donovani; settings: for IC50: resazurin assay, 0.03 to 44 μM, means ± S.E. of three experiments; for SI Values Promastigotes: SI = IC50 (mouse fibroblast) ÷ IC50 (promastigotes)
Experimental: Approximately 5×10^5 promastigotes/ml of L. donovani Khartum strain were inoculated into Yeager's Liver infusion tryptose (YLIT) medium or Brain Heart Infusion (BHI) broth (Difco), supplemented with glucose (2.5 mg/ml), 50 U/ml Pen-Strep and 0.005 mM Hemin at 25-26° C. and subcultured bi-weekly, Mikus et al., Parasitol Int., 48(3):265-9 (2000) (Mikus and Steverding, 2000).
The Leishmanicidal properties of fifteen naphthoquinone compounds (FIG. 1) on L. donovani promastigotes proliferation were assessed by the resazurin cell viability assay. Promastigotes from axenic culture were harvested during the exponential phase of growth (at least 5-day old culture), incubated at a concentration of 2×10^5 cells/200 μl with and without dilutions of compounds in 96-well microtitre plates. Dilutions of compounds covering 0.03 μM to 44 μM were prepared. […] 20 μl Alamar Blue (12.5 mg resazurin dissolved in 100 ml distilled water (Sigma #R7017)) (Mikes and Steverding, 2000) were added to each well and plates were incubated for another 2 hrs. […] Decrease in fluorescence (inhibition), were expressed as percentage of the fluorescence of control cultures and were plotted against the concentrations of compounds. The IC50 values were calculated from the sigmoidal inhibition curves.

[3] = Leishmania donovani, read-out: IC50 (μM) Promastigotes, L. donovani promastigotes

| SMILES | IC50 (L. donovani amastigotes; L. donovani amastigotes, 48 hrs exposure, resazurin assay, means ± S.E.) | Serum ALT Increase (%) ([1]; 20 mg/kg) | Serum AST Increase (%) ([1]; 20 mg/kg) | IC50 [2, 3] | SI Values Promastigotes [2] | IC50 ([2]; read-out: IC50 (μM) Promastigotes, L. donovani promastigotes) | IC50 (L. donovani amastigotes; Leishmania donovani, 48 h) | SI Values Amastigotes (L. donovani amastigotes) | Serum ALT Increase (%) ([1]; 5 mg/kg) | Serum AST Increase (%) ([1]; 5 mg/kg) | Serum ALT Increase (%) ([1]; 50 mg/kg) | Serum AST Increase (%) ([1]; 50 mg/kg) |
| --- | --- | --- | --- | --- | --- | --- | --- | --- | --- | --- | --- | --- |
| C[C@@H]1[C@H](O)[C@@H](C)/C=C/C=C/C=C/C=C/C=C/C=C/C=C/[C@H](O[C@@H]2O[C@H](C)[C@@H](O)[C@H](N)[C@@H]2O)C[C@@H]2O[C@](O)(C[C@@H](O)C[C@@H](O)[C@H](O)CC[C@@H](O)C[C@@H](O)CC(=O)O[C@H]1C)C[C@H](O)[C@H]2C(=O)O [Am. B., Amphotericin B, reference compound] | 22.3 µM | 100% | 88.05% |  |  |  |  |  |  |  |  |  |
| NC1=C(Br)C(=O)c2ccccc2C1=O [IMD8, 2-Amino-3-bromo-1,4-naphthoquinone] |  | 100% | 87.48% and 85.17% | 4.3 µM | 3301.71±321.1 and 3301.71 | 4.4 ± 0.4 µM | 2.07 µM | 6858.62±3975.5 and 6858.62 | 100% | 82.69% | 100% | 85.65% and 82.69% |
| O=C1C(Cl)=C(N(C(=O)c2cccc(Cl)c2)C(=O)c2cccc(Cl)c2)C(=O)c2ccccc21 [IMDNQ4, 3-Chloro-N-(3-chlorobenzoyl)-N-(3-chloro-1,4-dioxo-1,4-dihydronaphthalen-2-yl)-benzamide] |  | 100% | 87.48% | 6.81 µM | 24.65±12.51 and 24.65 |  | 1.19 µM | 141.26±56.8 and 141.26 | 100% | 87.40% | 100% | 85.65% |
| CCCC(=O)N(C(=O)CCC)C1=C(Cl)C(=O)c2ccccc2C1=O [IMDNQ15] |  | 100% | 90.34% |  | 61250.00±438 and 61250.00 |  | 18.9 µM | 0.16±0.09 and 0.16 | 100% | 87.95% | 100% | 91.91% |
